Tests used:
Type in all cases: in vivo, human patients
[1] = test system: patients with inadequately managed, severe chronic low back pain with or without a neuropathic pain component; test: Short Form 36 Health Survey (SF-36) scores, same trial; details: Baseline to Week 12, all P<0.05
Source text: This was a multicenter, multinational, open-label, effectiveness phase IIIb trial to evaluate effectiveness and safety of tapentadol prolonged release treatment in patients with inadequately managed, severe chronic low back pain with or without a neuropathic pain component. Patients taking WHO Step II analgesics discontinued those analgesics before starting study medication; patients taking Step I analgesics and/or centrally acting co-analgesics continued on the same dose. […] All patients received tapentadol prolonged release (50-250 mg bid) for up to 12 weeks (5-week titration period and a 7-week maintenance period). Tapentadol immediate release (IR) 50 mg (twice a day, hours apart) was permitted (combined total daily dose of tapentadol prolonged release and tapentadol IR, 500 mg/day). The primary efficacy endpoint was the change from Baseline to Week 6 (when tapentadol prolonged release doses were stable) in average pain intensity on the 11-point NRS-3 using the last observation carried forward (LOCF) for imputing missing scores. […]
All subjects completed Short Form-36 (SF-36) and EuroQol-5 Dimension (EQ-5D) questionnaires and the Hospital Anxiety and Depression Scale (HADS). […] Adverse events were recorded throughout the trial.

[2] = test system: patients with inadequately managed, severe chronic low back pain with or without a neuropathic pain component; test: Patient Global Impression of Change (PGIC), same trial
Source text: (§1) This was a multicenter, multinational, open-label, effectiveness phase IIIb trial to evaluate effectiveness and safety of tapentadol prolonged release treatment in patients with inadequately managed, severe chronic low back pain with or without a neuropathic pain component. Patients taking WHO Step II analgesics discontinued those analgesics before starting study medication; patients taking Step I analgesics and/or centrally acting co-analgesics continued on the same dose. […] All patients received tapentadol prolonged release (50-250 mg bid) for up to 12 weeks (5-week titration period and a 7-week maintenance period). Tapentadol immediate release (IR) 50 mg (twice a day, hours apart) was permitted (combined total daily dose of tapentadol prolonged release and tapentadol IR, 500 mg/day). The primary efficacy endpoint was the change from Baseline to Week 6 (when tapentadol prolonged release doses were stable) in average pain intensity on the 11-point NRS-3 using the last observation carried forward (LOCF) for imputing missing scores. The painDETECT questionnaire was used to evaluate the likelihood of a neuropathic pain component of low back pain; patients were classified as painDETECT “negative,” “unclear,” or “positive.” The population of patients classified as painDETECT negative was limited to approximately 30% of the total population.
(§2) All subjects completed Short Form-36 (SF-36) and EuroQol-5 Dimension (EQ-5D) questionnaires and the Hospital Anxiety and Depression Scale (HADS). The Patient Global Impression of Change (PGIC) and Clinical global impression of change (CGIC) were also used as secondary endpoints. For both tests, patients completed the statement, “since I began trial treatment, I would rate my overall condition as,” using 7 possible responses (“very much worse” to “very much improved”). Adverse events were recorded throughout the trial.

[3] = test system: patients with inadequately managed, severe chronic low back pain with or without a neuropathic pain component; test: Clinical global impression of change (CGIC), same trial
Source text: as §1, §2

## CC[C@@H](c1cccc(O)c1)[C@@H](C)CN(C)C [tapentadol, (−)-(1R,2R)-3-(3-dimethylamino-1-ethyl-2-methyl-propyl)-phenol]
[1]; patients painDETECT negative or unclear/positive
  SF-36 physical functioning, bodily pain, general health, role-emotional and physical component summary scores: improved
[1]; patients painDETECT unclear/positive
  SF-36 role-physical, vitality, social functioning, mental health, reported health transition and mental component summary scores: also improved
[2]; Week 1 (26/172)
  percentage of patients reporting “very much improved” or “much improved” on the PGIC: 15.1%
[2]; Week 6 (67/138)
  percentage of patients reporting “very much improved” or “much improved” on the PGIC: 48.6%
[2]; Week 12 (61/91)
  percentage of patients reporting “very much improved” or “much improved” on the PGIC: 67.1%
[3]; Week 1 (26/172)
  percentage of patients reporting “very much improved” or “much improved” on the CGIC: 15.1%
[3]; Week 6 (70/138)
  percentage of patients reporting “very much improved” or “much improved” on the CGIC: 50.7%
[3]; Week 12 (62/91)
  percentage of patients reporting “very much improved” or “much improved” on the CGIC: 68.2%

From patent US9980927B2, “Use of tapentadol for inhibiting and/or treating depression and anxiety” (Gruenenthal GmbH, priority 2011, dated 2018)
